Consider three molecules from the NIST ThermoML archive (doi:10.1016/j.fluid.2014.04.020).

Numbers after ± are expanded uncertainties.

Data set [1] can be described thus: Molar enthalpy of transition or fusion. To be noted: Crystal; DSC.
For data set [2] the following is noted: Crystal; DTA.

With `CCCCCCCCCCCCCCCCCC` [octadecane], the “Molar enthalpy of transition or fusion” value in data set [1] was 61.6 ± 2.7 kJ/mol. The Normal melting temperature in data set [2] came to 27.80 ± 0.53 °C.
`CCCCCCCCCCCC(=O)O` [dodecanoic acid]: the “Molar enthalpy of transition or fusion” value in data set [1] is 35.5 ± 1.6 kJ/mol. Moreover, the Normal melting temperature in data set [2] came out at 43.00 ± 0.53 °C.
As to `CCCCCCCCCC(=O)O` [decanoic acid], the “Molar enthalpy of transition or fusion” value in data set [1] turned out to be 27.2 ± 1.2 kJ/mol. The Normal melting temperature in data set [2] worked out at 31.10 ± 0.53 °C.
